Measurements from patent publication US8309528B2, “Two pore channels as regulators of proliferation in cancer” (The Trustees of Columbia University in the City of New York, priority 2006, dated 2012).

Tests used:
human TREK-1 = target: T1, human TREK-1 (Homo sapiens, UniProt O95069); test: Patch clamp of TREK-1 current in CHO cells transfected with human TREK-1; assay type: cell-based; details: CHO cells heterologously expressing human TREK-1; ramp protocol -130 mV to +40 mV in 6 s
T1 construct: expressed in transfected cells; host or cells: CHO cells
T1 sequence (O95069 1-426): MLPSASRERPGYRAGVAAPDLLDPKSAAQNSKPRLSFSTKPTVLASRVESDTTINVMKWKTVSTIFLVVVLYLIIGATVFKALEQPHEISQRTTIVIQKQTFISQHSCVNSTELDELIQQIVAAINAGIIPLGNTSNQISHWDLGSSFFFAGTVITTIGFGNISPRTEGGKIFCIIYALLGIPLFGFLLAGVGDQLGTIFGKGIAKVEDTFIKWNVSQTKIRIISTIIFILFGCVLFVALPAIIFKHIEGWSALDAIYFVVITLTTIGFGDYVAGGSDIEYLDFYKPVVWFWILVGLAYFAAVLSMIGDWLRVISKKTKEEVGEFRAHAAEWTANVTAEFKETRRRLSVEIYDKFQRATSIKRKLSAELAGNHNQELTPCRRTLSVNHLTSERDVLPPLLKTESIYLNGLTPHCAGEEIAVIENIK
Protocol: (§1) FIG. 7. […] CHO cells were transfected with a plasmid encoding human TREK-1 and the current was studied by patch clamp. The current-voltage relation was determined using a ramp protocol that went from −130 mV to +40 mV in 6 s (after correction for the junction potential). Current was greater in the presence of meclofenamate. This is typical of 7 cells.
as §1, with “8.” for “7.”, “less” for “greater”, “trifluoperazine.” for “meclofenamate.”, “3” for “7”
(§2) CHO cells were transfected with a plasmid encoding human TREK-1 and the current was studied by patch clamp. The current-voltage relation was determined using a ramp protocol that went from −130 mV to +40 mV in 6 s (after correction for the junction potential). Current was greater in the presence of meclofenamate. This is typical of 7 cells.
as §2, with “less” for “greater”, “trifluoperazine.” for “meclofenamate.”, “3” for “7”

[1] = test system: normal prostate epithelial cells (NPE) expressing TREK-1; test: MTT proliferation assay of normal prostate epithelial cells infected with TREK-1 adenovirus; assay type: cell-based; details: sipatrigine 10 μM; compared with NPE/TREK-1 and other groups; five paired experiments
Protocol: FIG. 3. Dominant-negative TREK-1 reduces proliferation of PC-3 cells. PC-3 cells were transfected with either dn-TREK (or a control vector (PEGFP) using GeneJammer (Stratagene) under standard conditions. Proliferation of these cells was measured using the MTT assay after the cells were plated at 1×10^5 cells/well in 96 well plates. Data are presented as the mean ±SEM of five experiments. * p<0.05 vs control and EGFP
FIG. 5. Expression of TREK-1 increases proliferation of normal prostate epithelial cells (NPE). Normal prostate epithelial cell cultures were obtained from Clonetics and infected with a TREK-1-containing adenovirus. Some virally infected cells were also treated with sipatrigine (10 μM), a TREK-1 blocker. Cell proliferation was assessed using the MTT assay as described in FIG. 3.
Normal prostate epithelial cell cultures were obtained from Clonetics and infected with a TREK-1-containing adenovirus. Some virally infected cells were also treated with sipatrigine (10 μM), a TREK-1 blocker. Cell proliferation was assessed using the MTT assay as described in FIG. 3.

| Effect on TREK-1 current (human TREK-1) | Structure (SMILES) | Cell proliferation (MTT) of TREK-1-infected NPE [1] |
| --- | --- | --- |
| activates TREK-1 current | Cc1ccc(Cl)c(Nc2ccccc2C(=O)O)c1Cl [Meclofenamate, Meclofenamic acid] |  |
| inhibits TREK-1 current | CN1CCN(CCCN2c3ccccc3Sc3ccc(C(F)(F)F)cc32)CC1 [Trifluoperazine] |  |
|  | CN1CCN(c2ncc(-c3cc(Cl)cc(Cl)c3Cl)c(N)n2)CC1 [sipatrigine] | no other groups were different |
